{"source": "patent US12605371B2", "about": "“Combination therapy for cancer” (The Board of Trustees of the Leland Stanford Junior …, priority 2020, dated 2026)", "key": {"B16 cells [1]": {"system": "B16 cells", "conditions": "in vivo; cited from earlier work"}, "B16 cells [2]": {"system": "B16 cells", "assay": "Apoptosis assay (camptothecin, Annexin V), B16 cells", "type": "cell-based, mouse", "conditions": "10 nM, 20 μM camptothecin, 4 hr", "experimental": "Apoptosis assay: 1×10^5 B16 cells were cultured in DMEM without serum overnight before addition of 20 μM camptothecin (Abcam, Burlingame, CA) in the presence of BSA or OPN fragments (10 nM). Cells were then incubated for 4 hr before addition of 200 μl of binding buffer. The plate was centrifuged at 400 g for 5 min and supernatant discarded. Annexin V FITC stain (Cayman chemicals, Ann Arbor, MI) was added to the cells and incubated at RT for 10 min in the dark. Cells were centrifuged as described above and 100 μl of binding buffer was added to each cell and fluorescence intensity measured at 485/535 nm (excitation/emission). Apoptotic index was calculated by dividing the camptothecin-treated cells with untreated cells."}, "B16 cells [3]": {"system": "B16 cells", "assay": "Cell migration assay (transwell), B16 cells", "type": "cell-based, mouse", "conditions": "10 nM, 24 hr", "experimental": "Cell migration assay: 10^5 B16 cells were placed in the upper chamber of a 6.5 mm transwell with a pore size of 8.0 μm (Sigma, XX). Cells were allowed to settle before the lower chamber was filled with BSA or various OPN fragments (10 nM) in presence of 0.2 mM MnCl2 (Sigma, St Louis, MO) and incubated at 37° C. for 24 hr. Cells that migrated to the lower chamber were centrifuged and resuspended into 90 ul of 1×HBSS (Gibco Life Technologies, Langley, OK) with 10 μl of CCK-8 staining solution (Dojindo Molecular Technologies Inc., Rockville, MD). Cells were incubated for 2 hr before measuring absorbance at 450 nm."}, "thrombin": {"molecular_target": "thrombin (Homo sapiens, UniProt P00734)", "assay": "Thrombin treatment of E. coli produced GST-OPN and GST-OPNR153A, SDS-PAGE", "type": "biochemical", "conditions": "thrombin 10 nM, time course", "experimental": "FIGS. 1A-1D: B16 tumors grow slower in OPN-KO and OPN-KI than WT mice in the flank model. FIG. 1A. Model of OPN cleavages and its functional modulation by thrombin and carboxypeptidase N or B2. OPN-FL=OPN-full length (SEQ ID NO:5); OPN-R=OPN-Arg (SEQ ID NO:6); OPN-L=OPN-Leu (SEQ ID NO:8). DC=dendritic cells. FIG. 1B. Time course of thrombin treatment (10 nM) of E. coli produced GST-OPN and GST-OPNR153A analyzed by SDS-PAGE. FL=full length, NTF=N-terminal fragment, CTF=C-terminal fragment (SEQ ID NO:7). FIG. 1C. Daily determination of B16 tumor volume grown on WT, OPN-KI and OPN-KO mice. FIG. 1D. B16 tumor weight after sacrifice. All data are shown as mean±SEM. Statistical significance was calculated by one-way ANOVA followed by Tukey's multiple comparison test.\nThe OPN-KI (OPNR153A) mice, similar to OPN-KO mice, were fertile and healthy before challenge, without any phenotypic changes observable in CBC, liver function and kidney function (FIGS. 9 and 10)"}, "[4]": {"system": "factor Xa-protease-activated receptor 2 signaling in TAMs", "conditions": "in vivo; cited from earlier work"}, "B16 cells [5]": {"system": "B16 cells", "assay": "B16 pulmonary metastasis model, mice fed DE chow", "type": "in vivo, mouse", "experimental": "Animals were monitored daily and sacrificed after 2 weeks. […] B16 metastasis model: 0.5×10^6 B16 cells were injected via tail vein into mice. After sacrifice, the lung was isolated and the number of metastatic nodules on surface was counted on both sides, before analyzing the left lobe for melanin determination. The left lobe of lung from each mouse was incubated in 1N NaOH/10% DMSO for 2 hr at 80° C. before centrifugation at 12,000 rpm for 10 min at room temperature. The absorbance at 470 nm of the supernatant was measured and compared to a standard of synthetic melanin (Sigma, St. Louis, MO). Lung was weighed before the start of process and melanin content was expressed as μg/mg protein determined by protein assay of lung tissue."}, "B16 tumors": {"system": "B16 tumors", "assay": "B16 subcutaneous (flank) tumor model, mice fed dabigatran etexilate chow", "type": "in vivo, mouse", "experimental": "B16 subcutaneous tumor inoculation: B16 cells were grown until confluent and 2×10^6 cells were inoculated subcutaneously into WT, OPN-KI and OPN-KO mice. Mice were monitored daily for tumor growth. Tumor size was measured and volume calculated using the equation (width×width×length)/2. Animals were euthanized using CO2 and blood collected by cardiac puncture and tumors were isolated carefully. Blood was centrifuged at 2500 rpm for 20 min to prepare plasma and stored at −80° C. Tumors were weighed and measured. Part of the tumor was stored in formaldehyde for immunohistochemistry, part of it was frozen and stored at −80° C. for preparation of tumor lysates for OPN ELISAs. […] Animals were monitored daily and sacrificed after 2 weeks."}, "[6]": {"conditions": "parenteral; particularly limited small cell lung cancers; cited from earlier work"}, "B16 cells [7]": {"system": "B16 cells", "assay": "Cell adhesion assay, B16 cells", "type": "cell-based, mouse", "conditions": "wells coated at 20 nM", "experimental": "Cell adhesion assay: Wells in 96-well plate was coated with either BSA or different OPN fragments at a concentration of 20 nM in coating buffer (Gibco Life Technologies, Langley, OK) and incubated at 4° C. overnight. The plate was then washed thrice with PBS before blocking with 3% BSA for 1 hr. The cells were washed thrice with 1×HBSS containing 0.2 mM MnCl2. 2×10^6 B16 or RAW cells were added to the wells and incubated at 37° C. for 1 hr. Wells were washed and cells fixed with absolute ethanol for 20 min before staining with 0.1% crystal violet. Cells were washed repeatedly with PBS until no violet color was visible, lysed with 0.5% Triton X-100 and absorbance determined at 570 nm."}, "RAW cells": {"system": "RAW cells", "assay": "PGE2 assay, RAW cells", "type": "cell-based, mouse", "conditions": "10 nM", "experimental": "PGE2 assay: 5×10^5 RAW cells were plated onto 6-well plate in serum free medium with either BSA or various OPN fragments (10 nM). Cells were cultured overnight before collecting the media and determining PGE2 by ELISA (Enzo, Farmingdale, NY)."}, "[8]": {"conditions": "OPN-KI or OPN-KO mice, trend, compared to untreated mice of same genotype"}, "[9]": {"conditions": "WT mice, compared to control WT mice, 13 days after inoculation"}}, "note": "“Also recorded” adds a separate entry of the source."}
{"molecule": "hirudin", "values": [{"measurement": "metastasis of B16 cells (in words)", "setting": "B16 cells [1]", "result": "prevented metastasis"}]}
{"molecule": "OPN-CTF: C-terminal OPN fragment after thrombin cleavage (SEQ ID NO:7) (SKSKKFRR; OPN-CTF)", "values": [{"measurement": "anti-apoptotic effect on B16 cells (in words)", "setting": "B16 cells [2]", "result": "no anti-apoptotic effect"}, {"measurement": "B16 chemotaxis/migration relative to OPN-FL (in words: significantly increased or not)", "setting": "B16 cells [3]", "result": "comparable to OPN-FL"}]}
{"molecule": "OPNR153A: mutant OPN with arginine in the thrombin cleavage site mutated to alanine (R153A), expressed in E. coli", "values": [{"measurement": "thrombin cleavage (in words)", "setting": "thrombin", "result": "resistant to thrombin cleavage"}]}
{"molecule": "O=C(NC[C@H]1CN(c2ccc(N3CCOCC3=O)cc2)C(=O)O1)c1ccc(Cl)s1", "note": "[rivaroxaban]", "values": [{"measurement": "antitumor immunity (in words)", "setting": "[4]", "result": "promote antitumor immunity"}]}
{"molecule": "CCCCCCOC(=O)N=C(N)c1ccc(NCc2nc3cc(C(=O)N(CCC(=O)OCC)c4ccccn4)ccc3n2C)cc1", "note": "[DE, dabigatran etexilate]", "values": [{"measurement": "melanin content of lungs", "setting": "B16 cells [5]; [8]", "result": "decreased"}, {"measurement": "pulmonary metastases", "setting": "B16 cells [5]; [8]", "result": "fewer"}, {"measurement": "melanin content of lungs", "setting": "B16 cells [5]; [9]", "result": "reduced"}, {"measurement": "metastatic nodules/lung", "setting": "B16 cells [5]; [9]", "result": "fewer"}, {"measurement": "effect on B16 local tumor growth, weight and volume (in words)", "setting": "B16 tumors; OPN-KI (and OPN-KO) mice", "result": "did not further reduce; also recorded: no effect"}, {"measurement": "tumor weight after sacrifice", "setting": "B16 tumors; OPN-KI mice, DE-containing chow, in g", "result": "0.8±0.9"}, {"measurement": "tumor volume after sacrifice", "setting": "B16 tumors; OPN-KI mice, DE-containing chow, mean±SEM", "result": "0.73±0.3", "unit": "cm^3"}, {"measurement": "B16 tumor growth (in words)", "setting": "B16 tumors; WT mice", "result": "tumor suppression; also recorded: grew slower"}, {"measurement": "tumor volume after sacrifice", "setting": "B16 tumors; WT mice, DE-containing chow from 4 days before B16 inoculation until sacrifice, mean±SEM", "result": "1.0±0.2", "unit": "cm^3"}, {"measurement": "tumor weight after sacrifice", "setting": "B16 tumors; WT mice, DE-containing chow, mean±SEM", "result": "1.0 ± 0.2", "unit": "g"}]}
{"molecule": "heparin", "values": [{"measurement": "survival of cancer patients (in words)", "setting": "[6]", "result": "survival benefit"}]}
{"molecule": "OPN-L: OPN-R with C-terminal arginine removed by CPN or CPB2 (SEQ ID NO:8) (RGDSVVYGL; OPN-L)", "values": [{"measurement": "reduction of B16 cell apoptosis compared to BSA", "setting": "B16 cells [2]", "result": "~3", "unit": "fold"}, {"measurement": "B16 cell adhesion compared to OPN-R (in words)", "setting": "B16 cells [7]", "result": "reduced adhesion"}, {"measurement": "B16 chemotaxis/migration relative to OPN-FL (in words: significantly increased or not)", "setting": "B16 cells [3]", "result": "not"}]}
{"molecule": "OPN-R: thrombin-cleaved OPN N-terminal fragment ending in Arg (SEQ ID NO:6) (RGDSVVYGLR; OPN-R)", "values": [{"measurement": "reduction of B16 cell apoptosis compared to BSA", "setting": "B16 cells [2]", "result": "~3", "unit": "fold"}, {"measurement": "secretion of PGE2 by RAW cells (in words)", "setting": "RAW cells", "result": "significantly enhanced"}, {"measurement": "B16 cell migration compared to BSA (in words)", "setting": "B16 cells [3]", "result": "increased migration"}]}
{"molecule": "OPN-FL: recombinant full length osteopontin (SEQ ID NO:5) (RGDSVVYGLRSKSKKFRR; OPN-FL)", "values": [{"measurement": "reduction of B16 cell apoptosis compared to BSA", "setting": "B16 cells [2]", "result": "~3", "unit": "fold"}, {"measurement": "B16 cell migration compared to BSA (in words)", "setting": "B16 cells [3]", "result": "increased migration"}]}
